In patent publication US6753297B2, “Use of indole-3-succinic acid as auxin” (priority 2001, dated 2004):

Tests used:
Fuchsia hybrida = test: Effectiveness of indole-3-succinic acid derivatives in root growth, procedure of Example 3; format: in vivo; details: 10^−7 M aqueous solution
Protocol: (§1) Five new-growth cuttings of two different varieties of Fuchsia hybrida (i.e., Varigated Fuchsia and Swingtime Fuchsia) were placed into the 50 mL solutions contained in orange plastic pill containers that were blackened with black electrician's tape. The solutions were placed in a fiberglass solar prism greenhouse (90% of UV light is filtered out of sunlight) in which the temperatures varied from 55° F. (night) to 100° F. (day). The solutions were topped with deionized water daily to the 50 mL mark to compensate for water […] and evaporation. Readings of the root growth were measured in total mm for the cuttings in a particular solution on days 7, 10, 14, 18, 22, 26, 30, and 34. These were recorded as the number of rootlets/total length (mm). […] Therefore, all data reflect the average mm root growth per survived cutting.
The process recited in Example 1 was followed to make the derivatives and they were each tested in accordance with the procedure in Example 3 in a 10^−7 M aqueous solution. The derivatives and their effectiveness compared to conventional auxins is reported below.

Swingtime Fuchsia = test: Root growth of Swingtime Fuchsia cuttings in hydroponic auxin solution; format: in vivo, Fuchsia hybrida; details: for Enhancement Ratio: Swingtime Fuchsia (SF), R = (ISAx − H2O)/(IBA − H2O), average root growth per cutting; for root growth activity compared to IBA: versus 10^−7 M IBA
Protocol: (§2) This example illustrates the auxin effect of each indole-3-succinic acid enantiomer and indole-3-succinic acid racemate, and compares them to IBA and water. A detailed description of this root growth study follows.
(§3) Fresh solutions were used in each experiment. Weights of hormone salts were measured to ±0.01 mg on a Mettler H-16 single-pan mechanical balance (reproducibility=±0.03 mg). Using indole-3-succinic acid R and S enantiomers as the 2×NH4^+ salt, 1.40 mg, was dissolved in 95% ethanol (20 mL) and slowly diluted to 500 mL with deionized water to make a stock solution of 1.047×10^−5 molar concentration. Dilutions were then made in the following manner.
(§4) For the concentration study (S)-indole-3-succinic acid; 2NH4^+ (98% e/e, 1.41 mg), and IBA Na(1.13 mg) were used to make stock solution of 1.055×10^−5 and 1.005×10^−5 molar, respectively. Deionized water was also used as a control.
as §1
(§5) This example compares indole-3-succinic acid enantiomers and ISA racemate to IBA and IAA. More specifically, Table 1 illustrates the relative effectiveness (in promoting root growth) of different indole-3-succinic acid solutions compared to 10^−7 M indole-3-butyric acid (IBA) and a 10^−7 M […].
(§6) This example was conducted in the same manner as in Example 2 above.

Varigated Fuchsia = test: Root growth of Varigated Fuchsia cuttings in hydroponic auxin solution; format: in vivo, Fuchsia hybrida; details: for Enhancement Ratio: Varigated Fuchsia (VF), R = (ISAx − H2O)/(IBA − H2O), average root growth per cutting; for root growth activity compared to IBA: versus 10^−7 M IBA
Protocol: as §2, §3, §4, §1, §5, §6

O=C(O)CC(C(=O)O)c1c[nH]c2ccc(Br)cc12 (centres unmarked) [5-bromoindole-3-succinic acid]
Effectiveness compared to IAA (Fuchsia hybrida): same as IAA

O=C(O)CC(c1ccccc1)c1c[nH]c2ccccc12 (centres unmarked) [3′-indole-3-phenylpropanoic acid]
Effectiveness compared to IAA (Fuchsia hybrida): 2× as effective as IAA

O=C(O)CC(C(=O)O)c1c[nH]c2ccccc12 (racemic) [Racemic ISA, indole-3-succinic acid]
Enhancement Ratio (Swingtime Fuchsia; 10^−7 M): 7.0
root growth activity compared to IBA (Swingtime Fuchsia; Swingtime Fuchsia): significantly higher
melting point: 196 to 198 °C

O=C(O)Cc1c[nH]c2ccccc12 [IAA, indole-3-acetic acid, reference compound]
Enhancement Ratio (Varigated Fuchsia; 10^−7 M): 0
root growth activity compared to IBA (Varigated Fuchsia; Varigated Fuchsia): substantially lower levels of activity
Enhancement Ratio (Swingtime Fuchsia; 10^−7 M): 0
root growth activity compared to IBA (Swingtime Fuchsia; Swingtime Fuchsia): substantially lower levels of activity

O=C(O)C[C@H](C(=O)O)c1c[nH]c2ccccc12 [(S)-ISA, (S)-indole-3-succinic acid]
Enhancement Ratio (Varigated Fuchsia; 10^−7 M): 3.8
Enhancement Ratio (Varigated Fuchsia; 10^−8 M): 4.6
potency compared to the other ISA enantiomer (Varigated Fuchsia; Varigated Fuchsia, all concentrations of ISA, FIG. 5): more potent
Enhancement Ratio (Swingtime Fuchsia; 10^−7 M): 5.7
Enhancement Ratio (Swingtime Fuchsia; 10^−8 M): 4.8

O=C(O)CC(C(=O)O)c1c[nH]c2ccc(Cl)cc12 (centres unmarked) [5-chloroindole-3-succinic acid]
Effectiveness compared to IAA (Fuchsia hybrida): 2× more effective than IAA

CC(CC(=O)O)c1c[nH]c2ccccc12 (centres unmarked) [3′-indole-3-methylpropanoic acid]
Effectiveness compared to IBA (Fuchsia hybrida): same as IBA

O=C(O)C[C@@H](C(=O)O)c1c[nH]c2ccccc12 [(R)-ISA, (R)-indole-3-succinic acid]
Enhancement Ratio (Varigated Fuchsia; 10^−7 M): 0.7
Enhancement Ratio (Varigated Fuchsia; 10^−8 M): 4.4
root growth activity compared to IBA (Varigated Fuchsia; Varigated Fuchsia): nearly the same activity
Enhancement Ratio (Swingtime Fuchsia; 10^−7 M): 5.6
Enhancement Ratio (Swingtime Fuchsia; 10^−8 M): 7.1
potency compared to the other ISA enantiomer (Swingtime Fuchsia; Swingtime Fuchsia, 10^−8 M, FIG. 5): more potent

O=C(O)CC(C(=O)O)c1c[nH]c2cccc(Cl)c12 (centres unmarked) [4-chloroindole-3-succinic acid]
Effectiveness compared to IAA (Fuchsia hybrida): 22× more effective than IAA
